Assay results published in article PMC6274786 (International Journal of Molecular Sciences, 2018).
“Also recorded” adds a separate entry of the source. Where two headings read alike, the source gives them in different places.

Experiments:
[1] = molecular target: T1, human H1 receptor (Homo sapiens, UniProt P35367); assay: Radioligand binding, membranes from CHO-K1 cells; conditions: for fold lower affinity at hH1- and H4Rs than at H3R: selectivity toward H3Rs
T1 construct: purchased PerkinElmer; host or cells: CHO-K1 cells, stably transfected (membranes)
Protocol: Radioligand binding was performed as previously described using membranes from CHO-K1 cells stably transfected with the human H1 receptor (PerkinElmer., Waltham, MA, USA). Data were fitted to a one-site curve-fitting equation with Prism 6 (GraphPad Software, city, state, country) and Ki values were estimated from the Cheng–Prusoff equation [44].

[2] = molecular target: T2, human histamine H3R (Homo sapiens, UniProt Q9Y5N1); assay: [3H]Nα-methylhistamine radioligand displacement assay, HEK-293 cell membranes; format: binding
T2 construct: expressed in transfected cells
Protocol: As described previously, the affinity for the human histamine H3R was tested utilizing radioligand displacement assays with [^3H]N^α-methylhistamine at membrane preparations from human embryonic kidney (HEK)-293 cells, stably expressing the receptor. […] The analysis of data was conducted by the software GraphPad Prism 7 (San Diego, CA, USA), using the “one-site competition” equation. Ki values were calculated from the 50 percent of inhibitory concentration (IC50) values according to the Cheng-Prusoff equation [44]

[3] = system: MES-induced seizure; assay: Maximal electroshock (MES)-induced seizure; format: in vivo, Wistar rats; conditions: for protective effect in MES-induced seizure (in words): vs saline-treated group; for MES-Induced Seizure (protection class): 50 Hz, 120 mA, 1 s
Description: As previously described, the seizures were induced in rats with a 50 Hz alternating current of 120 mA intensity. The current was applied through ear electrodes for 1 s. Protection against the spread of MES-induced seizure was defined as the abolition of the tonic hind limb extension (THLE) component of the seizure. For the first screening of protective effects of test compounds 1–16 in the MES-induced seizure model, the animals were divided into eighteen groups of seven rats (n = 7) as follows; group (1) control group injected with vehicle (SAL), group (2) positive control group in which rats were injected with PHT at a dose of 10 mg/kg (this being the minimal dose of PHT that protected animals against the spread of MES-induced seizures without mortality), and groups (3)–(18) animals in the experimental groups were administered H3R antagonists 1–16 at a dose of 10 mg/kg. In another MES experiment in three separate groups of six rats (n = 6), H3R antagonist 4 with the most promising protection in MES model was administered at doses of 2.5, 5, or 15 mg/kg, i.p. 30–45 min before the MES challenge.

[4] = molecular target: T3, hH4R (Homo sapiens, UniProt Q9H3N8); assay: H4R radioligand displacement assay, Sf9 cell membrane preparations; format: binding
T3 construct: expressed in transfected cells; host or cells: Sf9 insect cells (membrane preparations)
Protocol: H4R radioligand displacement assays were performed with Sf9 cell membrane preparations, expressing the hH4R, as described previously. Assays ran in triplicates with four appropriate concentrations of the test compound. Data were analyzed by GraphPad Prism 7, using the “one-site competition” equation.

[5] = system: PTZ-induced seizure; assay: Pentylenetetrazole (PTZ)-induced seizure; format: in vivo, Wistar rats; conditions: for protective effect in PTZ-induced seizure (in words): observed over 30 min, vs saline-treated group; for PTZ-Induced Seizure (protection class): PTZ 60 mg/kg
Protocol: (§1) In this study and according to previously used protocols, two chemical agents have been used to induce seizures, namely pentylenetetrazole (PTZ, 60 mg/kg, i.p.) and strychnine (STR, 3.5 mg/kg, i.p.). PTZ 60 mg/kg or STR 3.5 mg/kg were administered i.p. to all groups of seven rats (n = 7), that is, animals pretreated with vehicle or test compounds 1–16. Vehicle, VPA (300 mg/kg, i.p.), [26, 47, 48, 49] or test compounds 1–16 (10 mg/kg, i.p.) were systemically administered 30–45 min before PTZ (60 mg/kg, i.p.) or STR (3.5 mg/kg, i.p.) injection, and animals were directly observed for any signs of convulsion for a duration of 30 min. The observed scores as well as percent protection against generalized tonic-clonic seizure (GTCS) were graded and scaled according to the Racine scale (stage 0, no change in behavior; stage 1, stereotype mouthing, eye blinking, and/or mild facial clonus; stage 2, head nodding and/or severe facial clonus; stage 3, myoclonic jerk in forelimbs; stage 4, clonic convulsions in the forelimbs with rearing; stage 5, generalized colonic convulsions associated with loss of balance) to evaluate the protection provided by the respective test compound against seizures. The animals were divided into eighteen groups of seven rats (n = 7) and treated as follows.
(§2) (1) Control group injected with vehicle + PTZ (SAL group), (2) positive control group in which rats were injected with VPA (300 mg/kg) + PTZ (VPA group), and animals in the test groups (3)–(18) were systemically administered with test compounds 1–16 (10 mg/kg), respectively. An additional PTZ experiment was conducted using three different groups of seven rats (n = 7), the H3R ligand with the most promising protection in PTZ model was administered at doses of 2.5, 5, or 15 mg/kg, i.p. 30–45 min before the PTZ challenge. […] The same experimental procedure was followed in the STR-induced seizure model applying the reference drug VPA, which was used at a dose of 300 mg/kg, i.p. (Figure 3, Table 2).

[6] = system: STR-induced seizure; assay: Strychnine (STR)-induced seizure; format: in vivo, Wistar rats; conditions: for protective effect in STR-induced seizure (in words): 30 min observation, vs saline-treated group; for STR-Induced Seizure (protection class): STR 3.5 mg/kg
Protocol: as §1, §2

[7] = system: Hepatoma HepG2 cell line; assay: Antiproliferative assay (MTS), HepG2; format: cell-based; conditions: 72 h incubation
Protocol: Human embryonic kidney (HEK)-293 cell line (ATCC CRL-1573) was kindly donated by Prof. Dr. […] (Pharmaceutical Institute, Pharmaceutical Chemistry I, University of Bonn). Hepatoma HepG2 (ATCC HB-8065) cell line was kindly donated by the Department of Pharmacological Screening, Jagiellonian University Medical College. The cell cultures' growth conditions in presence of H3R antagonist 4 were applied as described before. The cells' viability was assessed after 72 h of incubation with H3R antagonist and the following references: doxorubicin (Sigma-Aldrich) and carbonyl cyanide 3-chlorophenylhydrazone (CCCP) (Sigma-Aldrich). CellTiter 96® AQueous non-radioactive cell proliferation assay (MTS) was purchased from Promega® and added to each well in the volume of 20 μL. The cells were then incubated for 2-5 h. The microplate reader EnSpire (PerkinElmer Ltd., Waltham, MA, USA) was used to measure the absorbance at 490 nm.

[8] = molecular target: CYP2D6 (Homo sapiens, UniProt P10635); assay: Luminescent CYP2D6 P450-Glo assay
Protocol: The metabolic interactions of H3R antagonist 4 were determined by the luminescent P450-Glo™ 3A4 and 2D6 assays purchased from Promega®. All enzymatic reactions were performed according to the manufacturer protocols and as previously described. […] The luminescence was measured with a microplate reader EnSpire (PerkinElmer). The final concentration of H3R antagonist 4 was in the range of 0.1–25 µM, whereas reference inhibitory effects ranged from 0.01 µM to 10 µM. The IC50 values’ calculations were performed by GraphPad Prism™ software (version 5.01, San Diego, CA, USA).

[9] = Metabolic stability in rat liver microsomes; format: in vitro ADME; conditions: RLMs, MS ion fragment analysis, metabolite M-I
Protocol: Rat liver microsomes (RLMs) purchased form Sigma-Aldrich (St. Louis, MO, USA) were used for in vitro determination of compound 4’s metabolic stability. The NADPH regeneration system was purchased from Promega (Madison, WI, USA). All experiments were performed as described before. The reaction mixture was preincubated at 37 °C for 5 min, and then the reaction was started by adding 50 µL of NADPH regeneration system. The reaction was ended after 120 min by the addition of cold methanol (200 µL). The mixture was then centrifuged at 14,000 rpm for 15 min and the ultra-performance liquid chromatography–mass spectrometry (UPLC/MS) analysis of the supernatant was conducted. Ion fragment analyses were also performed for metabolic pathways’ determination.

[10] = 10 mg/kg i.p. co-administered with RAMH 10 mg/kg i.p.

T2 sequence (Q9Y5N1 whole entry): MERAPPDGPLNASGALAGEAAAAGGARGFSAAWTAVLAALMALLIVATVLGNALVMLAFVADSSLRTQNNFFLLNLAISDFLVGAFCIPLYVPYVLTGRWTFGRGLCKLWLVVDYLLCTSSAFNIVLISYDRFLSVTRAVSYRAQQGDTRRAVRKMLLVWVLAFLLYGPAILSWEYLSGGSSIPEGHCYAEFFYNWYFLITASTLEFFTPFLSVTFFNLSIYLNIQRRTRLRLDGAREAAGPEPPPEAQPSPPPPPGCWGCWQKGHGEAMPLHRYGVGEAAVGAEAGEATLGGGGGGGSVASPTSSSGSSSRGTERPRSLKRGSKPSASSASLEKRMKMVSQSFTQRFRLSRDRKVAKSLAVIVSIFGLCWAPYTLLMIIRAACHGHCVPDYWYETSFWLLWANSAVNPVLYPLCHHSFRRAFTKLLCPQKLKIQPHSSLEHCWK
CYP2D6, sequence (P10635 whole entry): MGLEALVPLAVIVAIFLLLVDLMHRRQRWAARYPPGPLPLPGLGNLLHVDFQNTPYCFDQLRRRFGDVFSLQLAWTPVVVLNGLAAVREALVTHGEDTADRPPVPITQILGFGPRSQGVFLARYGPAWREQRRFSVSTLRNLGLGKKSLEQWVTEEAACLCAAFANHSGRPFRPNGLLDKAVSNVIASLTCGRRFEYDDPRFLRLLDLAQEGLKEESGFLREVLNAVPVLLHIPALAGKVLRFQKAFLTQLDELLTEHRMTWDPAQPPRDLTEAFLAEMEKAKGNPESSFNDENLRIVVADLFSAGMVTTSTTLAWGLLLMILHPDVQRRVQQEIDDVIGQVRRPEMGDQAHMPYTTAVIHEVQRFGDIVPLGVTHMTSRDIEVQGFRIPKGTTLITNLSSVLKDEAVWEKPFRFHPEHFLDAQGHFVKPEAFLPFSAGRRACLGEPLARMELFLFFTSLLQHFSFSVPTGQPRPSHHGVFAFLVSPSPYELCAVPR
T1 sequence (P35367 whole entry): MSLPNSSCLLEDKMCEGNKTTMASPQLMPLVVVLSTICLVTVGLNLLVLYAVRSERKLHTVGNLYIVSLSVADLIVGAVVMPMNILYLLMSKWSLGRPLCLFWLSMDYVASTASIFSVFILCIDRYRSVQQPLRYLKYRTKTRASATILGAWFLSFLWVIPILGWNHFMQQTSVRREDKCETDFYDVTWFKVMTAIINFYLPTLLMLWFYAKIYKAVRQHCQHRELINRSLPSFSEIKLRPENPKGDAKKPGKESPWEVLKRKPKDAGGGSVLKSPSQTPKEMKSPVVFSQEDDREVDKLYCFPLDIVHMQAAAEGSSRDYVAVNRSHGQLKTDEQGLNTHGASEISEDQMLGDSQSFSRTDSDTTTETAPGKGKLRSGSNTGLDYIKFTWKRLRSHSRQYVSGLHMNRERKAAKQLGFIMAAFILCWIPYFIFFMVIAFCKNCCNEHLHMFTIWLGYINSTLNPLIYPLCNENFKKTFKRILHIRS
T3 sequence (Q9H3N8 whole entry): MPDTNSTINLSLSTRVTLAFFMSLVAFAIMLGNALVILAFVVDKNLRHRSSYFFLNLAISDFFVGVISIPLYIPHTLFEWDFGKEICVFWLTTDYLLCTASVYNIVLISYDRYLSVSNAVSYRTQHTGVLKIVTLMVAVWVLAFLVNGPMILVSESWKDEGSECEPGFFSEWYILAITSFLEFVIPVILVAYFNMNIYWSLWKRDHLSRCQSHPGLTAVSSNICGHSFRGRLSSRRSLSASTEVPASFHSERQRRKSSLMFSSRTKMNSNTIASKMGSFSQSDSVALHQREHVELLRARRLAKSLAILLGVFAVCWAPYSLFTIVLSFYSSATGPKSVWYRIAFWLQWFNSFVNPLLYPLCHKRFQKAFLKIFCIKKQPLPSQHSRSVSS

Row | SMILES | Ki [1] | fold lower affinity at hH1- and H4Rs than at H3R [1] | protective effect in MES-induced seizure (in words) ([3]; 10 mg/kg i.p.) | MES-Induced Seizure (protection class) ([3]; 10 mg/kg i.p.) | Ki [4] | PTZ-Induced Seizure % Protection against GTCS ([5]; 10 mg/kg i.p.) | PTZ-Induced Seizure Average Seizure Score ([5]; 10 mg/kg i.p.) | protective effect in PTZ-induced seizure (in words) ([5]; 10 mg/kg i.p.) | PTZ-Induced Seizure (protection class) ([5]; 10 mg/kg i.p.) | STR-Induced Seizure % Protection against GTCS ([6]; 10 mg/kg i.p.) | STR-Induced Seizure Average Seizure Score ([6]; 10 mg/kg i.p.) | protective effect in STR-induced seizure (in words) ([6]; 10 mg/kg i.p.) | STR-Induced Seizure (protection class) ([6]; 10 mg/kg i.p.) | Ki [2] | concentration with significant decrease of HepG2 proliferation/viability [7] | also measured
1 | Fc1ccc(OCCCCCCN2CCCCCC2)cc1.O=C(O)C(=O)O [Ligand 13, 1-(6-(4-fluorophenoxy)hexyl)azepane hydrogen oxalate] | 1340 nM | at least 10 fold | without protection | − | > 10000 nM | 85.71% | 2.14 ± 0.47 | weak protection | + (moderate protective effect (tonic hind limb extension (THLE) duration in the range of 2–5 s, seizure score in the range of 2–4)) | 100% | 2.00 ± 0.35 | moderate protective effect | + (moderate protective effect (tonic hind limb extension (THLE) duration in the range of 2–5 s, seizure score in the range of 2–4)) |  |  | Ki ([2]; mean with 95% confidence interval, read-out: In Vitro Affinity Ki (hH3R) in nM [CI]): 137 nM; MES-Induced Seizure Average THLE ([3]; 10 mg/kg i.p.): 6.43 ± 1.14 s; STR-Induced Seizure % Protection against GTCS ([6]; 2.5 mg/kg i.p.): 14.29%; STR-Induced Seizure Average Seizure Score ([6]; 2.5 mg/kg i.p.): 4.86 ± 0.13; STR-Induced Seizure % Protection against GTCS ([6]; 5 mg/kg i.p.): 85.71%; STR-Induced Seizure Average Seizure Score ([6]; 5 mg/kg i.p.): 3.00 ± 0.31; STR-Induced Seizure % Protection against GTCS [6, 10]: 100%; STR-Induced Seizure Average Seizure Score [6, 10]: 2.14 ± 0.35; STR-Induced Seizure % Protection against GTCS ([6]; 15 mg/kg i.p.): 100%; STR-Induced Seizure Average Seizure Score ([6]; 15 mg/kg i.p.): 2.17 ± 0.31
2 | O=C(O)C(=O)O.O=C(c1ccccc1)c1ccc(OCCCCCCN2CCCCCC2)cc1 [Ligand 7, (4-(6-(azepan-1-yl)hexyloxy)phenyl)(phenyl)methanone hydrogen oxalate] | 915 nM | at least 10 fold |  | + (moderate protective effect (tonic hind limb extension (THLE) duration in the range of 2–5 s, seizure score in the range of 2–4)) | > 10000 nM |  |  | full protective activities | ++ (high protective effect (THLE duration <1, seizure score 0)) |  |  | failed to exhibit appreciable protection | − | 40.5 nM |  | 
3 | N#CC(C#N)=NNc1cccc(Cl)c1 [CCCP, carbonyl cyanide 3-chlorophenylhydrazone, reference compound] |  |  |  |  |  |  |  |  |  |  |  |  |  |  | 10 µM | 
4 | CC1CCCN(CCCCCCOc2ccc(C(=O)c3ccccc3)cc2)C1.O=C(O)C(=O)O (stereo not drawn) [Ligand 6, (4-(6-(3-methylpiperidin-1-yl)hexyloxy)phenyl)(phenyl)methanone hydrogen oxalate] | 915 to 1340 nM |  |  | + (moderate protective effect (tonic hind limb extension (THLE) duration in the range of 2–5 s, seizure score in the range of 2–4)) |  |  |  |  | − |  |  |  | − | 52.8 nM |  | IC50 ([8]; human): 670 nM
5 | O=C(O)C(=O)O.c1ccc2cc(OCCCCCCN3CCCCCC3)ccc2c1 [Ligand 4, 1-(6-(naphthalen-2-yloxy)hexyl)azepane hydrogen oxalate] | 1270 nM | at least 10 fold | most promising protective effect | ++ (high protective effect (THLE duration <1, seizure score 0)) | > 10000 nM | 100% | 0.00 ± 0.00 ^& | full protective activities | ++ (high protective effect (THLE duration <1, seizure score 0)) | 28.57% | 4.57 ± 0.19 | failed to provide any appreciable protection; also recorded: failed to exhibit appreciable protection | − |  | 100 µM | main metabolic pathway [9]: double-hydroxylation at the 6-n-hexylazepane moiety; IC50 [8]: 670 nM; fold higher CYP2D6 IC50 compared with reference drug QD [8]: 67 fold; MES-Induced Seizure Average THLE ([3]; 2.5 mg/kg i.p.): 5.83 ± 1.01 s; MES-Induced Seizure Average THLE (s) ([3]; 5 mg/kg i.p.): 2.50 ± 1.21 **^,# s; MES-Induced Seizure Average THLE (s) ([3]; 10 mg/kg i.p.): 0.57 ± 0.21 **^,$ s; MES-Induced Seizure Average THLE [3, 10]: 6.17 ± 0.59 s; MES-Induced Seizure Average THLE (s) ([3]; 15 mg/kg i.p.): 3.67 ± 0.94 **^,# s; PTZ-Induced Seizure % Protection against GTCS ([5]; 2.5 mg/kg i.p.): 100%; PTZ-Induced Seizure Average Seizure Score ([5]; 2.5 mg/kg i.p.): 2.29 ± 0.44; PTZ-Induced Seizure % Protection against GTCS ([5]; 5 mg/kg i.p.): 100%; PTZ-Induced Seizure Average Seizure Score ([5]; 5 mg/kg i.p.): 0.71 ± 0.31 **^,#; PTZ-Induced Seizure % Protection against GTCS [5, 10]: 100%; PTZ-Induced Seizure Average Seizure Score [5, 10]: 0.29 ± 0.16; PTZ-Induced Seizure % Protection against GTCS ([5]; 15 mg/kg i.p.): 100%; PTZ-Induced Seizure Average Seizure Score ([5]; 15 mg/kg i.p.): 0.00 ± 0.00 ^&
